We go through four molecules from publication PMC6273488, “Synthesis and Biological Evaluation of Benzochromenopyrimidinones as Cholinesterase Inhibitors and Potent Antioxidant, Non-Hepatotoxic Agents for Alzheimer’s Disease” (Molecules, 2016).

Data set [1] addresses T1, Electrophorus electricus AChE (EeAChE) (Electrophorus electricus, UniProt O42275).
T1 construct: purified AChE from Electrophorus electricus (Type V-S, Sigma-Aldrich); purchased Sigma-Aldrich Type V-S
The following applies: cited from earlier work.

Data set [2] deals with T2, horse serum BuChE (eqBuChE) (Equus caballus, UniProt P81908).
T2 construct: BuChE from horse serum (lyophilized powder, Sigma-Aldrich); purchased Sigma-Aldrich; host or cells: horse serum
The following applies: cited from earlier work.

Data set [3] in a line: in vitro. Type of data set: cell-based. The following applies: 24 h, MTT, read-out: In vitro toxicity (% cell viability). How it is done: (§1) A prerequisite for any effective lead drug is to keep its cytotoxicity at the lowest possible level. In this regard, we submitted the four most promising compounds (3Ab, 3Bb, 3Cb and 3Ba) to an in vitro toxicologic evaluation (MTT assay) using human hepatocellular carcinoma cell line (HepG2) which represents a good probe to evaluate hepatotoxic effects. […].
(§2) HepG2 cells were purchased from American Type Culture Collection. The cells were cultured in Eagle’s Minimum Essential Medium (Ozyme, France) supplemented with 10% fetal bovine serum, 1X non-essential amino acids, 100 units/mL penicillin and […] streptomycin (Dutscher, Brumath, France). Cultures were kept under a CO2/air (5%/95%) humidified atmosphere at 37 °C. Prior to the experiment, cells were seeded in 96-well culture plates at a density of 0.1 × 10^6 cells per well. After 24 h of incubation, the culture medium was refreshed and 100 µL of the test compounds or DMSO (0.1%) were added. […] For the MTT assay, after 24 h of treatment, cells were incubated with 50 µL MTT (0.5 mg/mL, Sigma Aldrich, city, France) at 37 °C for 2 h. Plates were centrifuged, MTT was removed and 100 µL DMSO was distributed per well. The absorbance at 570 nm was measured using microplate reader (brand). Cell viability was expressed as percentage of cell viability compared to controls (DMSO, 0.1%).

The test system of another data set is HepG2 cells. Briefly: in vitro. The format is cell-based. The following applies: HepG2, MTT, concentrations up to 1000 μM. Here is the method: as §1, §2
A short description of data set [4]: in vitro. The following applies: PAMPA, pH 7.4. Here is the method:
Penetration across the BBB is an essential property for compounds targeting the CNS. […] The filter membrane of the donor plate was coated with PBL (Polar Brain Lipid, Avanti, AL, USA) in dodecane (4 µL of 20 mg/mL PBL in dodecane) and the acceptor well was filled with 300 µL of PBS pH 7.4 buffer ([…]). Tested compounds were dissolved first in DMSO and that diluted with PBS pH 7.4 to reach the final concentration 100 µM in the donor well. […] 300 µL of the donor solution was added to the donor wells ([…]) and the donor filter plate was carefully put on the acceptor plate so that coated membrane was “in touch” with both donor solution and acceptor buffer. Test compound diffused from the donor well through the lipid membrane (Area = 0.28 cm^2) to the acceptor well. The concentration of the drug in both donor and the acceptor wells was assessed after 3, 4, 5 and 6 h of incubation in quadruplicate using the UV plate reader Synergy HT (Biotek, Winooski, VT, USA) at the maximum absorption wavelength of each compound.

The conditions of data set [5]: ORAC-FL; cited from earlier work.
Setting [6] is: related alkaloid and synthetic compounds.

Like-named read-outs stand apart in the source and are kept apart here.

T2 sequence (P81908 whole entry): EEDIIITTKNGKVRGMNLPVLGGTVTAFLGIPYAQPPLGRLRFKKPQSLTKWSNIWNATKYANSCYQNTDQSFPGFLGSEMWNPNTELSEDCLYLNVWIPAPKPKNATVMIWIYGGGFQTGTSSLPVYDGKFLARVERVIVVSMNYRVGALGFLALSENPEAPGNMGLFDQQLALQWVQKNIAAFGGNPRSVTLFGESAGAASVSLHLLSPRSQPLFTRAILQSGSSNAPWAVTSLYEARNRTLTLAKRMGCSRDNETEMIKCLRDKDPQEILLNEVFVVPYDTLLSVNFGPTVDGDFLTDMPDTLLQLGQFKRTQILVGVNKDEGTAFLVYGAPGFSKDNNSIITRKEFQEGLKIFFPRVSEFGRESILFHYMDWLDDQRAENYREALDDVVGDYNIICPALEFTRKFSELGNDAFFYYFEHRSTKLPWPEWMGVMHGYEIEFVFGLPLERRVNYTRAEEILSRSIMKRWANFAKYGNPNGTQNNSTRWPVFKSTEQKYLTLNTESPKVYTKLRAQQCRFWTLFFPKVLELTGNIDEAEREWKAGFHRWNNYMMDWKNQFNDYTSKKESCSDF
T1 sequence (O42275 24-633): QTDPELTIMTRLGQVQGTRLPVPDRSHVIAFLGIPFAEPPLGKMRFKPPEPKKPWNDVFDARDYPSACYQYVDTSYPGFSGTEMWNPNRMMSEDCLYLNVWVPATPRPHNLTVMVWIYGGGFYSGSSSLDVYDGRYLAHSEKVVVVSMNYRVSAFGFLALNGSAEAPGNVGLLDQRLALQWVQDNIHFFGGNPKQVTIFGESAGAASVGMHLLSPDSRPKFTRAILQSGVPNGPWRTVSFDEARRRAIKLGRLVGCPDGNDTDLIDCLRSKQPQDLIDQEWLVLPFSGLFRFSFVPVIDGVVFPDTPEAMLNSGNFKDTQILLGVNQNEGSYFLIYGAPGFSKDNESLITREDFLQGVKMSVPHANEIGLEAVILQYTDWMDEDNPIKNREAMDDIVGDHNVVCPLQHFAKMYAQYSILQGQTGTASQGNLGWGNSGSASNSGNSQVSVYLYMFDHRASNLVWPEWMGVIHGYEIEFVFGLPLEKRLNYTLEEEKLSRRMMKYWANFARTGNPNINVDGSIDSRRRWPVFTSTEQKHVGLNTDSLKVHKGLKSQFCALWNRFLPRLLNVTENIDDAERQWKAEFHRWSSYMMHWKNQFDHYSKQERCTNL

One may read the IC50 as the point on the concentration scale where inhibition reaches its midpoint. On to `C[n+]1c2n(c(=O)c3ccccc31)CCc1c-2[nH]c2ccccc12` [II, dehydroevodiamine chloride], for which the IC50 in data set [1] is 6.3 µM; in data set [2], 8.4 µM.
For the molecule `O=c1c2ccccc2nc2n1CCCC2` [Ib], the IC50 is 38.6 µM in data set [1] (setting [6]) and > 500 µM in data set [2] (unit inferred).
Turning to `O=c1c2ccccc2nc2n1CCCCC2` [Ic], the results for the IC50 in data set [1] (setting [6]) and in data set [2] (unit inferred) were 279 µM and > 500 µM, respectively.
Broadly, the viability is a read-out of living cells in per cent, often relative to untreated cells. As usually defined, the Papp is the rate of passage across a membrane or cell layer, normalised by area and donor concentration. For `Nc1c2c(nc3ccccc13)CCCC2` [Tacrine, tacrine, reference compound], the viability at 24 h, 1 µM in “in vitro [3]” (HepG2, 1 µM) is 105 ± 4.6%. Besides, in the data set “in vitro [3]” (HepG2, 3 µM), the viability at 24 h, 3 µM was determined as 104 ± 8.7%. Besides, in “in vitro [3]” (HepG2, 10 µM), the viability at 24 h, 10 µM turned out to be 97 ± 6.5%. For the same molecule, the viability at 24 h, 30 µM in the data set “in vitro [3]” (HepG2, 30 µM) turned out to be 93 ± 2.7%. Besides, in the data set “in vitro [3]” (HepG2, 100 µM), the viability at 24 h, 100 µM was determined as 95.2 ± 6%. Besides, the viability at 24 h, 300 µM in the data set “in vitro [3]” (HepG2, 300 µM) was 47.6 ± 5.6%. Besides, in the data set “in vitro [3]” (HepG2, 1 mM), the viability at 24 h, 1 mM came out at 13.9 ± 0.8%. Besides, the “hepatotoxicity on HepG2 cells (in words)” value in the data set with HepG2 cells is “safe up to 100 µM but significantly decreased cell viability above 300 μM”. Also, the Papp in the data set “in vitro [4]” is 5.3 ± 0.19 ×10⁻⁶ cm/s. Moreover, in data set [5], the ORAC was 0.2 ± 0.1 [22] Trolox equivalents.
